Measured values published in paper PMC12467382, “Synthesis and Bioevaluation of Chalcones as Broad-Spectrum Antiviral Compounds Against Single-Stranded RNA Viruses” (Biomolecules, 2025).

Assays:
CHO-K1 cells = assay: cells; format: cell-based, Chinese hamster; conditions: for CHOK1 48 h EC10: Chinese hamster; for EC50: Cricetulus griseus, CHO-K1, 48 h, read-out: CHOK1 48 h EC50
Procedure: (§1) A cell growth assay using the MTS reagent was conducted to assess the general toxicity of each chalcone compound. Briefly, cell growth was assayed in sterile 96-well microtiter plates (Costar 3599, Corning Inc., Corning, NY, USA) in the presence of each chalcone. Experiments were conducted in triplicate. In a typical experiment, there are two plates. The first is the control plate, which allows one to assess the starting cell population on the day of drug addition (Day 0). The second plate is the test plate where cells are plated and tested with different drug concentrations on Day 0. For example, either CHO cells or Hs27 cells were plated in a 200 µL volume at 1000 cells/well on both the control and test plates and incubated overnight to allow the cells to adhere. On Day 0, 1 μL of PBS was added to the control plate wells so that their total volume was 201 μL. MTS reagent (Promega Cell Titer 96 Aqueous non-radioactive cell proliferation reagent, Promega, Madison, WI, USA) was added (20 μL) to each well on the control plate, and that plate was incubated for 4 h in a 5% CO2 atmosphere at 37 °C and then read on the plate reader.
(§2) On Day 0, 1 μL of a 200× stock solution of each chalcone was added to the respected well on the test plate, and each condition was tested in triplicate. Drug solutions were prepared in advance in 100% DMSO and dosed so that the final DMSO concentration was 0.5%. For example, 1 μL of chalcone solution was added to the cells plated in each well in 200 μL of media. Of note, the respective chalcone addition occurred after an initial overnight incubation of each cell line in each well to reach Day 0 (the drugging day). After the chalcone was added, the cells were incubated in 5% CO2 for 48 h at 37 °C. After 48 h, the MTS reagent (Promega, Madison, WI, USA) was added (20 μL), and the test plates were incubated for an additional 4 h, and then, absorbance at 490 nm was measured on a BioTek Synergy MX plate reader. […] IC50 values were determined from the corresponding plot of relative absorbance at 490 nm vs. the drug concentration.
(§3) For highly colored materials like the chalcones, it is important to consider the contribution of the compound’s own absorbance to the MTS assay. To correct for the absorbance contribution of the chalcone itself, we measured each chalcone’s absorbance (Chalcone Abs) at 490 nm at the respective concentration (e.g., 10 µM) and subtracted the absorbance of the media background (blank Abs). This net value was then subtracted out of the Day 2 absorbance value to provide the % relative growth via the following equation:(1) % Relative Growth = (Day 2 Abs−Day 2 blank Abs)−Chalcone Abs−blank Abs−(Day 0 Abs−Day 0 blank Abs)/(Day 2 Control Abs −Day 2 blank Abs)−(Day 0 Abs−Day 0 blank Abs) ×100%
With the chalcones in hand, we then evaluated their growth-inhibition properties in Chinese hamster ovary (CHO-K1) cells and human Hs27 fibroblast cells. […] The results are shown in Table 2 along with a SAR summary of our findings in the host Hs27 cells.

Hs27 cells = assay: 48 h MTS growth inhibition assay in Hs27 cells; format: cell-based, human; conditions: for EC50: Homo sapiens, HS27, 48 h, read-out: Hs27 48 h EC50; for Hs27 48 h EC10: highest concentration giving 90% relative new cell growth after 48 h, 0.5% DMSO
Procedure: as §1, with “Briefly, cell growth was assayed in sterile 96-well microtiter plates (Costar 3599, Corning Inc., Corning, NY, USA) in the presence of each chalcone.” left out
as §2, §3
With the chalcones in hand, we then evaluated their growth-inhibition properties in Chinese hamster ovary (CHO-K1) cells and human Hs27 fibroblast cells.

mTOR signaling [1] = assay: Western blot of prps6 and rps6 as readouts of mTOR signaling in PANC-1 cells; format: cell-based; conditions: 72 h, chalcones 10 µM, rapamycin 10 nM
Procedure: PANC-1 cells were cultured in 6-well dishes and were lysed using modified radioimmunoprecipitation assay (RIPA) buffer (20 mM HEPES, pH 7.0, 150 mM NaCl, 1 mM EDTA, 1% NP-40, 1% deoxycholate, and 0.1% sodium dodecyl sulfate [SDS]) containing a complete protease inhibitor cocktail (Roche, Mannheim, Germany) and PhosSTOP phosphatase inhibitor cocktail (Roche, Mannheim, Germany). Protein concentrations were determined using the bicinchoninic acid (BCA) protein assay kit (Pierce, Rockford, IL, USA) according to manufacturer’s instructions. Cell lysates with 25 µg of protein were resolved on 12% sodium dodecyl sulfate-polyacrylamide gel electrophoresis (SDS-PAGE) gels and electro-transferred onto polyvinylidene difluoride (PVDF) membranes (Trans-Blot Turbo Transfer System, BioRad, Hercules, CA, USA). The samples were probed with rabbit monoclonal antibodies for the P-rps6 (1:1000) protein (Cell Signaling, Danvers, MA, USA) and mouse monoclonal antibodies for rps6 (1:1000) (Cell Signaling) and β-actin (1:5000) (Abcam, Waltham, MA, USA) proteins. Blots were visualized using anti-rabbit or anti-mouse horseradish peroxidase (HRP)-conjugated antibodies (Cell Signaling) and chemiluminescence reagent (Thermo Fisher Scientific, Waltham, MA, USA).
PANC-1 cells were chosen for this study as they are highly dependent on mTOR for their growth. PANC-1 cells were cultured and treated with the positive control rapamycin (10 nM) and chalcones NM5, 8a, 8o, 8s, 8v, and 8w (10 μM) for 72 h. Rapamycin and the chalcones were dissolved in 100% DMSO and dosed so that the final DMSO concentration was 0.1%. Cell lysates were collected and analyzed to determine the relative protein expression levels of rps6, prps6, and β-actin as a loading control (see Figure 12).

PIV5-GFP = PIV5-GFP viral GFP expression in Hs27 cells by flow cytometry; format: cell-based, parainfluenza virus 5; conditions: 10 µM; Hs27 cells infected with PIV5-GFP
Procedure: Parainfluenza virus 5 (PIV5) expressing green fluorescence protein (GFP) was derived from cDNA, grown at 37 °C in Madin–Darby bovine kidney (MDBK) cells and titered on CV-1 (African green monkey kidney) cells with a fibroblast morphology as previously described. MDBK and CV-1 cells were the kind gift of Dr. Robert Lamb (Northwestern University). Cells were infected with virus diluted in DMEM supplemented with 10% bovine serum albumin (BSA) for 1 h or mock infected with media alone. Following incubation, cells were washed with phosphate-buffered saline (PBS) and cultured in DMEM supplemented with 2% heat-inactivated (HI) FBS.
Chalcone treatments were performed in DMEM supplemented with 10% HI FBS at the indicated concentrations and for indicated periods of time. Chalcone stocks were reconstituted in 100% dimethyl sulfoxide (DMSO) at a concentration of 10 mM and were serially diluted to working concentrations in DMSO. DMSO control treatments to test the effect of the vehicle were performed at volumes corresponding to the volume of chalcone added during each experiment (i.e., 1 µL chalcone DMSO solution/1 mL DMEM [10 µM] utilized alongside the DMSO control of 1 µL/1 mL DMEM). For cytotoxicity assays, untreated controls were subtracted from DMSO and chalcone sample values to account for the background signal.
For cytotoxicity assays, cells were stained with propidium iodide (PI) at a dilution of 1:100. Cell viability was determined via flow cytometry using the CytoFLEX (Beckman Coulter, Brea, CA, USA). CytExpert software (Beckman Coulter, version 2.4) was used to analyze independent events. PIV5 infection was monitored using flow cytometry via the FITC channel by analyzing GFP expression of individual cells. ZIKV infection was monitored utilizing Flavivirus group antigen–antibody (D1-4G2-4-15; Novus Biologicals, Littleton, CO, USA) staining for the ZIKV envelope protein. Cells were fixed and permeabilized using eBioscience Intracellular Fixation and Permeabilization Buffer (Invitrogen, Thermo Fisher Scientific, MA, USA) according to the manufacturer’s instructions. Secondary staining was performed using an anti-Alexa Fluor 488 (AF488) antibody (Invitrogen, Thermo Fisher Scientific, MA, USA). OC43 infection was monitored utilizing a primary antibody targeted toward the OC43 nucleocapsid protein (NP, MAB9013, Sigma-Aldrich, St. Louis, MO, USA). Secondary staining was performed using an AF488 antibody. Cells were fixed and permeabilized as previously described. LACV infection was monitored utilizing an anti-LACV Gc 807.31ab antibody kindly provided by Andrew Pekosv. Secondary staining was performed using an AF488 antibody. Cells were fixed and permeabilized as previously described.
To measure the effect of chalcone treatment on PIV5 virus growth, Hs27 cells were infected with PIV5-GFP. This engineered negative sense single-stranded RNA virus expresses GFP, which serves as a genome-encoded protein readout. After entering a cell, PIV5 must first undergo primary transcription to convert its genome into mRNA. As genome replication begins, nascent genomes then become templates for further conversion to mRNA and viral gene expression becomes amplified in a process called secondary transcription. For viral proteins to be detectable in cell culture, this amplification must first take place, making the expression of GFP a direct indicator of whether secondary transcription has successfully occurred. […] As shown in the representative data in Figure 4A, ~82% of DMSO-treated PIV5-GFP infected cells were positive for GFP expression. This was reduced to ~2% GFP-positive cells after treatment with 8o. […] These chalcones were therefore selected for further screening for cytotoxicity.
The GFP IC50 was defined as the concentration of chalcone required to inhibit the GFP expression (as measured via flow cytometry) by 50% when compared to DMSO-treated cells. […]

mTOR signaling [2] = system: mTOR signaling; set-up: method as in PMID 28442256; conditions: SGR2 and Huh7.5 cell lines; cited from earlier work

Compound | CHOK1 48 h EC10 (CHO-K1 cells) [µM] | EC50 (CHO-K1 cells) [µM] | EC50 (Hs27 cells) [µM] | Hs27 48 h EC10 (Hs27 cells) [µM] | prps6 expression relative to DMSO control (mTOR signaling [1]) | total rps6 protein expression relative to DMSO control (mTOR signaling [1]) | % GFP relative to DMSO treated (10 µM) (PIV5-GFP) [%] | Effect on mTOR signaling (mTOR signaling [2])
COc1ccc(/C=C/C(=O)c2c(O)cccc2OCc2ccccc2)c(OC)c1OC [Chalcone 8y, (2E)-1-(2-Benzloxy-6-Hydroxy-Phenyl)-3-(2,3,4-Trimethoxy-Phenyl)-Propenone] | 7.2 ± 0.6 | 15.8 ± 1 | 7.7 ± 0.2 | 6.3 ± 0.2 | – | – | – | –
CO[C@H]1C[C@@H]2CC[C@@H](C)[C@@](O)(O2)C(=O)C(=O)N2CCCC[C@H]2C(=O)O[C@H]([C@H](C)C[C@@H]2CC[C@@H](O)[C@H](OC)C2)CC(=O)[C@H](C)/C=C(\C)[C@@H](O)[C@@H](OC)C(=O)[C@H](C)C[C@H](C)/C=C/C=C/C=C/1C [rapamycin, reference compound] | – | – | – | – | loss of prps6 expression | no significant difference | – | –
CCOc1ccc(Br)cc1/C=C/C(=O)c1c(O)cccc1OCCc1ccccc1 [Chalcone 8t, (2E)-3-(5-Bromo-2-Ethoxy-Phenyl)-1-[2-Hydroxy-6-Phenethyloxy]-Propenone] | 1.1 ± 0.1 | 2.6 ± 0.2 | 10.3 ± 0.5 | 6.4 ± 0.5 | – | – | 84.9 | –
CCOc1ccc(Br)cc1/C=C/C(=O)c1c(O)cccc1OC [Chalcone 8q, (2E)-3-(5-Bromo-2-Ethoxy-Phenyl)-1-(2-Hydroxy-6-Methoxy-Phenyl)-Propenone] | 4.3 ± 0.4 | 6 ± 0.3 | 9.9 ± 1 | 2.7 ± 0.04 | – | – | – | –
COc1ccc(/C=C/C(=O)c2cc(Br)cc(Br)c2O)cc1OC [NM5, (2E)-1-(3,5-Dibromo-2-hydroxyphenyl)-3-(3,4-dimethoxyphenyl)-2-propen-1-one, reference compound] | 1.1 ± 0.1 | 6.2 ± 0.3 | 1.8 ± 0.1 | 1.0 ± 0.1 | stimulate this prps6 mTOR readout | – | – | inhibit mTOR signaling
CCOc1ccc(Br)cc1/C=C/C(=O)c1c(O)cccc1OCCC(C)C [Chalcone 8r, (2E)-3-(5-Bromo-2-Ethoxy-Phenyl)-1-[2-Hydroxy-6-(3-Methyl-Butoxy)-Phenyl]-Propenone] | 4.7 ± 0.4 | 6.8 ± 0.7 | 16.9 ± 2 | 9.4 ± 0.7 | – | – | 108.7 | –
COc1ccc(Br)cc1/C=C/C(=O)c1c(O)cccc1OCCc1ccccc1 [Chalcone 8u, (2E)-3-(5-Bromo-2-Methoxy-Phenyl)-1-[2-Hydroxy-6-Phenethyloxy]-Propenone] | 1.0 ± 0.1 | 4.3 ± 0.3 | 4.9 ± 0.6 | 3.4 ± 0.5 | – | – | – | –
